Measurements published in the OligoGym collection.
HELM strings list units from the 5' end as sugar, base in round brackets, then linkage (d deoxyribose, r ribose, m 2'-O-methyl, p phosphodiester). Strings are as the collection lists them; they lack the last nucleoside at the 3' end of the tested compound. [moe] = 2'-O-(2-methoxyethyl) (MOE); [sp] = phosphorothioate linkage; [m5C] = 5-methylcytosine

What follows are substances tested against UBE3A-ATS (assay: mouse, dose not given). Conditions: ASO.

Substance | 3 h FOB score
RNA1{[moe](T)[sp].[moe](G)p.[moe](A)p.[moe](T)p.d([m5C])[sp].d(A)[sp].d([m5C])[sp].d(A)[sp].d(T)[sp].d(T)[sp].d(A)[sp].d([m5C])[sp].d([m5C])[sp].d([m5C])[sp].[moe](A)p.[moe](T)p.[moe]([m5C])p.[moe]([m5C])[sp].[moe](G)}$$$$ (last 3' nucleoside missing) | 1 score 0-7
RNA1{[moe](T)[sp].[moe](G)p.[moe](G)p.[moe](G)p.[moe](T)p.d(T)[sp].d(A)[sp].d([m5C])[sp].d(T)[sp].d(T)[sp].d(T)[sp].d([m5C])[sp].d([m5C])[sp].d(A)[sp].d(A)[sp].[moe](T)p.[moe](A)p.[moe](G)[sp].[moe](A)}$$$$ (last 3' nucleoside missing) | 5.7 score 0-7
RNA1{[moe](T)[sp].[moe](G)p.[moe](G)p.[moe](T)[sp].d([m5C])[sp].d(A)[sp].d(T)[sp].d([m5C])[sp].d(T)[sp].d([m5C])[sp].d(G)[sp].d(G)[sp].[moe](G)p.[moe](T)p.[moe](A)p.[moe](T)[sp].[moe](A)}$$$$ (last 3' nucleoside missing) | 4.7 score 0-7
RNA1{[moe](T)[sp].[moe](G)p.[moe](G)p.[moe](T)p.[moe](A)p.d(T)[sp].d(T)[sp].d(G)[sp].d(A)[sp].d([m5C])[sp].d(A)[sp].d([m5C])[sp].d([m5C])[sp].d(T)[sp].d([m5C])[sp].[moe]([m5C])p.[moe](A)p.[moe](A)[sp].[moe]([m5C])}$$$$ (last 3' nucleoside missing) | 0.3 score 0-7
RNA1{[moe](T)[sp].[moe](G)p.[moe](G)p.[moe](T)p.[moe]([m5C])[sp].d(A)[sp].d(T)[sp].d([m5C])[sp].d(T)[sp].d([m5C])[sp].d(G)[sp].d(G)[sp].d(G)[sp].[moe](T)p.[moe](A)p.[moe](T)[sp].[moe](A)}$$$$ (last 3' nucleoside missing) | 6.3 score 0-7
RNA1{[moe](T)[sp].[moe](G)p.[moe](G)p.[moe](T)p.[moe]([m5C])p.[moe](A)[sp].d(T)[sp].d([m5C])[sp].d(T)[sp].d([m5C])[sp].d(G)[sp].d(G)[sp].d(G)[sp].d(T)[sp].[moe](A)p.[moe](T)[sp].[moe](A)}$$$$ (last 3' nucleoside missing) | 4.7 score 0-7
RNA1{[moe](T)[sp].[moe](G)p.[moe](G)p.[moe](T)p.[moe]([m5C])p.[moe](A)p.d(T)[sp].d([m5C])[sp].d(T)[sp].d([m5C])[sp].d(G)[sp].d(G)[sp].d(G)[sp].d(T)[sp].d(A)[sp].d(T)[sp].[moe](A)p.[moe](T)[sp].[moe](A)}$$$$ (last 3' nucleoside missing) | 6 score 0-7
RNA1{[moe](T)[sp].[moe](G)p.[moe](G)p.[moe](T)p.[moe]([m5C])p.d(A)[sp].d(T)[sp].d([m5C])[sp].d(T)[sp].d([m5C])[sp].d(G)[sp].d(G)[sp].d(G)[sp].d(T)[sp].d(A)[sp].[moe](T)p.[moe](A)p.[moe](T)[sp].[moe](A)}$$$$ (last 3' nucleoside missing) | 5.2 score 0-7
RNA1{[moe](T)[sp].[moe](G)p.[moe](G)p.[moe](T)p.d([m5C])[sp].d(A)[sp].d(T)[sp].d([m5C])[sp].d(T)[sp].d([m5C])[sp].d(G)[sp].d(G)[sp].d(G)[sp].d(T)[sp].[moe](A)p.[moe](T)p.[moe](A)p.[moe](T)[sp].[moe](A)}$$$$ (last 3' nucleoside missing) | 4 score 0-7
RNA1{[moe](T)[sp].[moe](G)p.[moe](G)p.[moe]([m5C])p.[moe](A)p.d(A)[sp].d(G)[sp].d(T)[sp].d(A)[sp].d(T)[sp].d(G)[sp].d([m5C])[sp].d(T)[sp].d(A)[sp].d(G)[sp].[moe](T)p.[moe]([m5C])p.[moe](A)[sp].[moe]([m5C])}$$$$ (last 3' nucleoside missing) | 2.3 score 0-7
RNA1{[moe](T)[sp].[moe](G)p.[moe](G)p.[moe]([m5C])p.[moe](T)p.d(T)[sp].d(T)[sp].d(A)[sp].d(T)[sp].d(A)[sp].d([m5C])[sp].d(T)[sp].d(T)[sp].d(T)[sp].d(A)[sp].[moe]([m5C])p.[moe]([m5C])p.[moe]([m5C])[sp].[moe](A)}$$$$ (last 3' nucleoside missing) | 0.7 score 0-7
RNA1{[moe](T)[sp].[moe](G)p.[moe](T)p.[moe](A)p.[moe](T)p.d([m5C])[sp].d(A)[sp].d(G)[sp].d(G)[sp].d([m5C])[sp].d(A)[sp].d(A)[sp].d([m5C])[sp].d(A)[sp].d(G)[sp].[moe](A)p.[moe](A)p.[moe](T)[sp].[moe]([m5C])}$$$$ (last 3' nucleoside missing) | 4.7 score 0-7
RNA1{[moe](T)[sp].[moe](G)p.[moe](T)p.[moe](A)p.[moe]([m5C])p.d(A)[sp].d(A)[sp].d(A)[sp].d([m5C])[sp].d(G)[sp].d(G)[sp].d(G)[sp].d([m5C])[sp].d(T)[sp].d(A)[sp].[moe](T)p.[moe](G)p.[moe](T)[sp].[moe](G)}$$$$ (last 3' nucleoside missing) | 7 score 0-7
RNA1{[moe](T)[sp].[moe](G)p.[moe](T)p.[moe](G)[sp].d([m5C])[sp].d(A)[sp].d(T)[sp].d(A)[sp].d([m5C])[sp].d([m5C])[sp].d([m5C])[sp].d(A)[sp].[moe](G)p.[moe](G)p.[moe](G)p.[moe](T)[sp].[moe](A)}$$$$ (last 3' nucleoside missing) | 1 score 0-7
RNA1{[moe](T)[sp].[moe](G)p.[moe](T)p.[moe](G)p.[moe](A)p.d(G)[sp].d(A)[sp].d(T)[sp].d(A)[sp].d(A)[sp].d(T)[sp].d(T)[sp].d([m5C])[sp].d(A)[sp].d(G)[sp].[moe](G)p.[moe](A)p.[moe](G)[sp].[moe](G)}$$$$ (last 3' nucleoside missing) | 5 score 0-7
RNA1{[moe](T)[sp].[moe](G)p.[moe](T)p.[moe](G)p.[moe](G)p.d(G)[sp].d([m5C])[sp].d([m5C])[sp].d(T)[sp].d([m5C])[sp].d(T)[sp].d(A)[sp].d(T)[sp].d(T)[sp].d(A)[sp].[moe](A)p.[moe](G)p.[moe](A)[sp].[moe](T)}$$$$ (last 3' nucleoside missing) | 1 score 0-7
RNA1{[moe](T)[sp].[moe](G)p.[moe](T)p.[moe](G)p.[moe](T)p.[moe](G)p.d(T)[sp].d(T)[sp].d(T)[sp].d(T)[sp].d(T)[sp].d([m5C])[sp].d([m5C])[sp].d(A)[sp].d(T)[sp].d(T)[sp].[moe](T)p.[moe](T)[sp].[moe](T)}$$$$ (last 3' nucleoside missing) | 0 score 0-7
RNA1{[moe](T)[sp].[moe](G)p.[moe](T)p.[moe](G)p.[moe](T)p.[moe](T)p.d(T)[sp].d(T)[sp].d(T)[sp].d([m5C])[sp].d([m5C])[sp].d(A)[sp].d(T)[sp].d(T)[sp].d(T)[sp].d(T)[sp].[moe](T)p.[moe]([m5C])[sp].[moe](T)}$$$$ (last 3' nucleoside missing) | 0 score 0-7
RNA1{[moe](T)[sp].[moe](G)p.[moe](T)p.[moe](G)p.[moe](T)p.d(G)[sp].d(T)[sp].d(T)[sp].d(T)[sp].d(T)[sp].d(T)[sp].d([m5C])[sp].d([m5C])[sp].d(A)[sp].d(T)[sp].[moe](T)p.[moe](T)p.[moe](T)[sp].[moe](T)}$$$$ (last 3' nucleoside missing) | 0 score 0-7
RNA1{[moe](T)[sp].[moe](G)p.[moe](T)p.[moe](G)p.[moe](T)p.d(T)[sp].d(T)[sp].d(T)[sp].d(T)[sp].d([m5C])[sp].d([m5C])[sp].d(A)[sp].d(T)[sp].d(T)[sp].d(T)[sp].[moe](T)p.[moe](T)p.[moe]([m5C])[sp].[moe](T)}$$$$ (last 3' nucleoside missing) | 0 score 0-7
RNA1{[moe](T)[sp].[moe](G)p.[moe](T)p.[moe](G)p.[moe]([m5C])[sp].d(A)[sp].d(T)[sp].d(A)[sp].d([m5C])[sp].d([m5C])[sp].d([m5C])[sp].d(A)[sp].d(G)[sp].[moe](G)p.[moe](G)p.[moe](T)[sp].[moe](A)}$$$$ (last 3' nucleoside missing) | 1 score 0-7
RNA1{[moe](T)[sp].[moe](G)p.[moe](T)p.[moe](G)p.[moe]([m5C])p.[moe](A)[sp].d(T)[sp].d(A)[sp].d([m5C])[sp].d([m5C])[sp].d([m5C])[sp].d(A)[sp].d(G)[sp].d(G)[sp].[moe](G)p.[moe](T)[sp].[moe](A)}$$$$ (last 3' nucleoside missing) | 1 score 0-7
RNA1{[moe](T)[sp].[moe](G)p.[moe](T)p.[moe](G)p.[moe]([m5C])p.[moe](A)p.d(T)[sp].d(A)[sp].d([m5C])[sp].d([m5C])[sp].d([m5C])[sp].d(A)[sp].d(G)[sp].d(G)[sp].d(G)[sp].d(T)[sp].[moe](A)p.[moe](G)[sp].[moe](G)}$$$$ (last 3' nucleoside missing) | 0 score 0-7
RNA1{[moe](T)[sp].[moe](G)p.[moe](T)p.[moe](G)p.[moe]([m5C])p.d(A)[sp].d(T)[sp].d(A)[sp].d([m5C])[sp].d([m5C])[sp].d([m5C])[sp].d(A)[sp].d(G)[sp].d(G)[sp].d(G)[sp].[moe](T)p.[moe](A)p.[moe](G)[sp].[moe](G)}$$$$ (last 3' nucleoside missing) | 3 score 0-7
RNA1{[moe](T)[sp].[moe](G)p.[moe](T)p.[moe](G)p.d(T)[sp].d(G)[sp].d(T)[sp].d(T)[sp].d(T)[sp].d(T)[sp].d(T)[sp].d([m5C])[sp].d([m5C])[sp].d(A)[sp].[moe](T)p.[moe](T)p.[moe](T)p.[moe](T)[sp].[moe](T)}$$$$ (last 3' nucleoside missing) | 1 score 0-7
RNA1{[moe](T)[sp].[moe](G)p.[moe](T)p.[moe](G)p.d(T)[sp].d(T)[sp].d(T)[sp].d(T)[sp].d(T)[sp].d([m5C])[sp].d([m5C])[sp].d(A)[sp].d(T)[sp].d(T)[sp].[moe](T)p.[moe](T)p.[moe](T)p.[moe]([m5C])[sp].[moe](T)}$$$$ (last 3' nucleoside missing) | 1 score 0-7
RNA1{[moe](T)[sp].[moe](G)p.[moe](T)p.[moe](G)p.d([m5C])[sp].d(A)[sp].d(T)[sp].d(A)[sp].d([m5C])[sp].d([m5C])[sp].d([m5C])[sp].d(A)[sp].d(G)[sp].d(G)[sp].[moe](G)p.[moe](T)p.[moe](A)p.[moe](G)[sp].[moe](G)}$$$$ (last 3' nucleoside missing) | 1 score 0-7
